We go through four molecules from patent publication EP0227941A1, “1-Phenyl-4-(1H)-pyridazinimines, their preparation and use” (BASF Aktiengesellschaft, priority 1985, dated 1987).

Each structure is given as a SMILES string. Where a name gives a salt, the structure may show the parent alone.

By IC50 is commonly meant the concentration that gives 50% inhibition.

Holding throughout (type): biochemical, Ratten
Test [1] has as its target T1, Synaptosomen-Aufnahme von Noradrenalin (Rattus norvegicus, UniProt Q63380).
T1 construct: Durch differentielle Zentrifugation wurden Synaptosomen erhalten; from tissue; host or cells: rat brain hippocampus synaptosomes
The experiment in a line: Inhibition of noradrenaline uptake in rat brain synaptosomes (hippocampus, 3H-noradrenaline). Conditions: for Hemmung der Synaptosomen-Aufnahme von Noradrenalin r.W. (relative Wirksamkeit): Quotient IC50 Referenzverbindung / IC50 Beispielverbindung; for IC50: rat hippocampus synaptosomes, 3H-Noradrenalin ca. 10 nM, 37°C, read-out: Hemmung der Synaptosomen-Aufnahme von Noradrenalin IC50. From the text:
(§1) Hemmung der Neurotransmitter-Aufnahme in Rattenhirn-Synaptosomen
(§2) Hippocampus und Cortex aus Rattenhirn wurden präpariert und in 0,32 M Sucrose-Lösung homogenisiert. Durch differentielle Zentrifugation wurden Synaptosomen erhalten, die in Pufferlösung suspendiert wurden. Die Synaptosomen sind in der Lage, aus dem umgebenden Medium zugefügte Neurotransmittersubstanzen (z.B. Noradrenalin oder Serotonin) aktiv aufzunehmen. Dieser Vorgang ist durch uptake-Hemmer konzentrationsabhängig antagonisierbar. Die Synaptosomen wurden mit den Testsubstanzen in verschiedenen Konzentrationen versetzt und anschließend mit ³H-Noradrenalin (Hippocampus) bzw. ³H-Serotonin (Cortex) bei 37°C inkubiert. Die Substratkonzentration betrug ca. 10 nM. Nach Stoppen der Aufnahme durch Verdünnen mit eisgekühlter Pufferlösung wurden die Synaptosomen abzentrifugiert und die ³H-Aktivität im Sediment gemessen. Der Blindwert wird durch Inkubation bei 0°C ermittelt.
(§3) Aus den verschiedenen Inhibitor-Konzentrationen gegen Kontrolle ermittelten Hemmwerten wurde durch lineare Regression nach logit-log-Transformation die mittlere Hemmkonzentration IC₅₀ berechnet.

Test [2] deals with T2, Synaptosomen-Aufnahme von Serotonin (Rattus norvegicus, UniProt P31652).
T2 construct: Durch differentielle Zentrifugation wurden Synaptosomen erhalten; from tissue; host or cells: rat brain cortex synaptosomes
Put plainly: Inhibition of serotonin uptake in rat brain synaptosomes (cortex, 3H-serotonin). Conditions: for Hemmung der Synaptosomen-Aufnahme von Serotonin r.W. (relative Wirksamkeit): Quotient IC50 Referenzverbindung / IC50 Beispielverbindung; for IC50: rat cortex synaptosomes, 3H-Serotonin ca. 10 nM, 37°C, read-out: Hemmung der Synaptosomen-Aufnahme von Serotonin IC50.
Excerpt: as §1, §2, §3

A further test deals with T3, Monoaminoxidase Typ B (Rattus norvegicus, UniProt P19643).
T3 construct: Die Bestimmung der Monoaminoxidase erfolgte in verdünntem Rattenhirnhomogenat; from tissue; host or cells: rat brain homogenate
T3 sequence (P19643 1-520): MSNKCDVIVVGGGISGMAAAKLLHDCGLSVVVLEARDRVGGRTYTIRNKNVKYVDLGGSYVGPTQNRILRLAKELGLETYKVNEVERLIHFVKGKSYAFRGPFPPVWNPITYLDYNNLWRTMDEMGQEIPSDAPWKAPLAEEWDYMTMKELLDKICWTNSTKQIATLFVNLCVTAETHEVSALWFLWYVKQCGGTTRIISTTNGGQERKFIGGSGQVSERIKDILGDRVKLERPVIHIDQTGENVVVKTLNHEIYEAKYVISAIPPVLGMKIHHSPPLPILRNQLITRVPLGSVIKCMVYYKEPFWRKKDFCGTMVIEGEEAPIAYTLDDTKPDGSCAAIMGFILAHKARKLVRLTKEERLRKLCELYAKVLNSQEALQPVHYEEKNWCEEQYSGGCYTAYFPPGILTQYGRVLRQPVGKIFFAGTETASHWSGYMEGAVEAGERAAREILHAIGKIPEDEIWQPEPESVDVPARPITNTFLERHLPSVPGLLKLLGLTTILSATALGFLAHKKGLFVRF
The experiment in a line: Inhibition of monoamine oxidase type B in rat brain homogenate (14C-phenylethylamine). Conditions: for Hemmung der Monoaminoxidase Typ B r.W. (relative Wirksamkeit): Quotient IC50 Referenzverbindung / IC50 Beispielverbindung; for IC50: rat brain homogenate, 14C-Phenylethylamin, 20 min 37°C, read-out: Hemmung der Monoaminoxidase Typ B IC50. The method, then: (§4) Hemmung der Monoaminoxidase
(§5) Die Bestimmung der Monoaminoxidase erfolgte in verdünntem Rattenhirnhomogenat dem 1. unterschiedliche Konzentrationen der zu prüfenden Testsubstanzen und 2. für die Bestimmung der Monoaminoxidase Typ A ¹⁴C-Tryptamin in einer Konzentration von 0,4 µmol, zur Bestimmung der Monoaminoxidase Typ B ¹⁴C-Phenylethylamin in einer Konzentration von 0,25 µmol zugesetzt wurde. Dieser Ansatz wurde 20 Minuten bei 37°C inkubiert. Die Reaktion wird durch 0,1 n HCl gestoppt und die Reaktionsprodukte nach Extraktion in Toluol-Szintillator (PPO + POPOP in Toluol) bestimmt. Der Blindwert wird in analogen Ansätzen mit einer Inkubationszeit von t = 0 Minuten bestimmt.
(§6) Aus den bei den verschiedenen Inhibitorkonzentrationen gegen die Kontrolle ermittelten Hemmwerten wurde durch lineare Regression nach logit-log-Transformation die mittlere Hemmkonzentration (IC₅₀) berechnet.

A further test concerns the target T4, Monoaminoxidase Typ A (Rattus norvegicus, UniProt P21396).
T4 construct: Die Bestimmung der Monoaminoxidase erfolgte in verdünntem Rattenhirnhomogenat; from tissue; host or cells: rat brain homogenate
T4 sequence (P21396 1-526): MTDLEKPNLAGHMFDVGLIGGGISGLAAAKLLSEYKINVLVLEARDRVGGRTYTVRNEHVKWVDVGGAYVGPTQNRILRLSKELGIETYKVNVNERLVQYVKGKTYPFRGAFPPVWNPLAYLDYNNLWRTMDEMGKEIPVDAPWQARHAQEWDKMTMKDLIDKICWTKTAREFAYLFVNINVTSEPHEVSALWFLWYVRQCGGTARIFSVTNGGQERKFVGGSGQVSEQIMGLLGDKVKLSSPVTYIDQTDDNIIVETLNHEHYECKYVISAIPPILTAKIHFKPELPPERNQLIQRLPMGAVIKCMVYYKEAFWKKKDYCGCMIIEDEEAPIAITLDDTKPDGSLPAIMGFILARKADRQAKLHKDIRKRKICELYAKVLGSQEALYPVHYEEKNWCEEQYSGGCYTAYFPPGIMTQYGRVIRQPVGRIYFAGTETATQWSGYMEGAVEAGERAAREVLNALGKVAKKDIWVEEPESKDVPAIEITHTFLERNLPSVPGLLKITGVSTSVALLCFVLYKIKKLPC
Put plainly: Inhibition of monoamine oxidase type A in rat brain homogenate (14C-tryptamine). Conditions: for Hemmung der Monoaminoxidase Typ A r.W. (relative Wirksamkeit): Quotient IC50 Referenzverbindung / IC50 Beispielverbindung; for IC50: rat brain homogenate, 14C-Tryptamin, 20 min 37°C, read-out: Hemmung der Monoaminoxidase Typ A IC50. The procedure:
as §4, §5, §6

T1 sequence (Q63380 1-617): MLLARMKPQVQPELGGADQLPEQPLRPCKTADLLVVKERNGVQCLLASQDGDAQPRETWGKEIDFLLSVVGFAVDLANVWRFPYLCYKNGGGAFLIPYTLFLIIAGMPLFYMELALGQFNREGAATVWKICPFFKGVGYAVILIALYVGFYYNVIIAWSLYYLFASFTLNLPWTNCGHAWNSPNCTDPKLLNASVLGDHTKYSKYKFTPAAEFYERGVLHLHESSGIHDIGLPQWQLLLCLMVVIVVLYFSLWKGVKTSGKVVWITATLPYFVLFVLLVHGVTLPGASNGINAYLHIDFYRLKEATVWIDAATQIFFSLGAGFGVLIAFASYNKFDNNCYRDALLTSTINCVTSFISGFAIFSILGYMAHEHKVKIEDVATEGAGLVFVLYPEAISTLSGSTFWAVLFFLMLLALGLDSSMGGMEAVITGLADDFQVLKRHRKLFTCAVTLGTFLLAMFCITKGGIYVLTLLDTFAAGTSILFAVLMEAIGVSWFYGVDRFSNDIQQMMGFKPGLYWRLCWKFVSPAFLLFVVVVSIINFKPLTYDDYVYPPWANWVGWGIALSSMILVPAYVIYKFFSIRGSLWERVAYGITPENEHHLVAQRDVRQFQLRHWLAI
T2 sequence (P31652 whole entry): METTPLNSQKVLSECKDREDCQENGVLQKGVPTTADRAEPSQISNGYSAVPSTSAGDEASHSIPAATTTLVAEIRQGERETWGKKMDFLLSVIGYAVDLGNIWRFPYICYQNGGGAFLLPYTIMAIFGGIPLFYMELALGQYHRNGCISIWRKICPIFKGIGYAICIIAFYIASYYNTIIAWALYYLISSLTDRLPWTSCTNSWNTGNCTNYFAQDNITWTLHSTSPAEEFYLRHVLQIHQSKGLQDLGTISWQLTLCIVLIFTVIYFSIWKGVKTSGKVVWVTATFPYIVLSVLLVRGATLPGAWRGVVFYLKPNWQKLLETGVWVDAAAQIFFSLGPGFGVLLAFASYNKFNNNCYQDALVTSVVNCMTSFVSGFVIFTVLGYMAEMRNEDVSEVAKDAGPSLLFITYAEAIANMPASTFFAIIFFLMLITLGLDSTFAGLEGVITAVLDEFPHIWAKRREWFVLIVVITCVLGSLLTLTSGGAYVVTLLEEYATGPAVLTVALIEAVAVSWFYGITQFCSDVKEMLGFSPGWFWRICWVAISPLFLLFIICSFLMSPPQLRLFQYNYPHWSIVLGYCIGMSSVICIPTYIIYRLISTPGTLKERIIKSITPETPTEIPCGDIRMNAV

For `N=c1ccn(-c2ccc(Br)c(Br)c2)nc1` [Beispiel 18, 1-(3,4-Dibromphenyl)-4-(1H)-pyridazinimin-hydrochlorid], in test [1], the “Hemmung der Synaptosomen-Aufnahme von Noradrenalin r.W. (relative Wirksamkeit)” value came out at 6.1 and the IC50 stood at 5.1 nM. In test [2], the “Hemmung der Synaptosomen-Aufnahme von Serotonin r.W. (relative Wirksamkeit)” value was 261 and the IC50 was determined as 2.8 nM. For the same molecule, at Monoaminoxidase Typ B, the “Hemmung der Monoaminoxidase Typ B r.W. (relative Wirksamkeit)” value is 25.8 and the IC50 was 1900 nM. Further, on Monoaminoxidase Typ A, the “Hemmung der Monoaminoxidase Typ A r.W. (relative Wirksamkeit)” value is on record as 4.8 and the IC50 was 870 nM.
For the molecule `Cc1ccc(-n2ccc(=N)cn2)cc1F` [Beispiel 11, 1-(3-Fluor-4-methylphenyl)-4-(1H)-pyridazinimin-hydrochlorid], in test [1], the “Hemmung der Synaptosomen-Aufnahme von Noradrenalin r.W. (relative Wirksamkeit)” value is 1.2 and the IC50 was 26 nM. In addition, in test [2], the “Hemmung der Synaptosomen-Aufnahme von Serotonin r.W. (relative Wirksamkeit)” value came out at 7.3 and the IC50 is 100 nM. For the same molecule, at Monoaminoxidase Typ B, the “Hemmung der Monoaminoxidase Typ B r.W. (relative Wirksamkeit)” value was found to be 9.6 and the IC50 is 5100 nM. On Monoaminoxidase Typ A, the “Hemmung der Monoaminoxidase Typ A r.W. (relative Wirksamkeit)” value is 2.0 and the IC50 was found to be 2100 nM.
`N=c1ccn(-c2ccc(Cl)c(Br)c2)nc1` [Beispiel 16, 1-(3-Brom-4-chlorphenyl)-4-(1H)-pyridazinimin-hydrochlorid]: in test [1], the “Hemmung der Synaptosomen-Aufnahme von Noradrenalin r.W. (relative Wirksamkeit)” value came out at 2.5 and the IC50 was determined as 13 nM. Further, in test [2], the “Hemmung der Synaptosomen-Aufnahme von Serotonin r.W. (relative Wirksamkeit)” value was 109 and the IC50 stood at 6.7 nM. For the same molecule, on Monoaminoxidase Typ B, the “Hemmung der Monoaminoxidase Typ B r.W. (relative Wirksamkeit)” value turned out to be 18.1 and the IC50 is 2700 nM. Also, at Monoaminoxidase Typ A, the “Hemmung der Monoaminoxidase Typ A r.W. (relative Wirksamkeit)” value was 2.0 and the IC50 came to 2140 nM.
For the molecule `N=c1ccn(-c2ccc(Cl)c(Cl)c2)nc1` [Beispiel 1, 1-(3,4-Dichlorphenyl)-4-(1H)-pyridazinimin-hydrochlorid], in test [1], the “Hemmung der Synaptosomen-Aufnahme von Noradrenalin r.W. (relative Wirksamkeit)” value is 5.3 and the IC50 was determined as 5.8 nM. Also, in test [2], the “Hemmung der Synaptosomen-Aufnahme von Serotonin r.W. (relative Wirksamkeit)” value was 112 and the half-inhibitory concentration (IC50) came out at 6.5 nM. On Monoaminoxidase Typ B, the “Hemmung der Monoaminoxidase Typ B r.W. (relative Wirksamkeit)” value is 18.8 and the IC50 amounted to 2600 nM. Besides, on Monoaminoxidase Typ A, the “Hemmung der Monoaminoxidase Typ A r.W. (relative Wirksamkeit)” value was determined as 2.2 and the IC50 was found to be 1900 nM.
